Assay results taken from US11466023B2, “Combination of a Mcl-1 inhibitor and a standard of care treatment for hematologic cancers, uses and pharmaceutical compositions thereof” (LES LABORATOIRES SERVIER, priority 2017, dated 2022).
Like-named read-outs stand apart in the source and are kept apart here.

Columns and labels:
[1] = test system: EOL-1 AML cell line; assay: Single agent cell viability (CellTiterGlo); assay type: cell-based; settings: Homo sapiens, EOL1, 72 h; EOL-1, single agent, 3 days incubation, CellTiterGlo; read-out: IC50
Procedure: (§1) Cell lines were cultured at 37° C. in a humidified atmosphere containing 5% CO2 and expanded in T-150 flasks. […] In order to analyse the activity of the compounds as single agents, cells were seeded and treated with nine 2-fold serial dilutions of each compound dispensed individually directly into the cell assay plates. […] All the experiments were performed in triplicates. Luminescence was quantified on a multipurpose plate reader. Single agent IC50s were calculated using standard four-parametric curve fitting.

[2] = test system: GDM-1 AML cell line; assay: Single agent cell viability (CellTiterGlo); assay type: cell-based; settings: Homo sapiens, 72 h; GDM-1, single agent, 3 days incubation, CellTiterGlo; read-out: IC50
Procedure: as §1

[3] = test system: HL-60 AML cell line; assay: Single agent cell viability (CellTiterGlo); assay type: cell-based; settings: Homo sapiens, 72 h; HL-60, single agent, 3 days incubation, CellTiterGlo; read-out: IC50
Procedure: as §1

[4] = test system: KG1 AML cell line; assay: Single agent cell viability (CellTiterGlo); assay type: cell-based; settings: 72 h; KG1, single agent, 3 days incubation, CellTiterGlo; read-out: IC50
Procedure: as §1

[5] = test system: KG1a AML cell line; assay: Single agent cell viability (CellTiterGlo); assay type: cell-based; settings: Homo sapiens, KG-1a, 72 h; KG1a, single agent, 3 days incubation, CellTiterGlo; read-out: IC50
Procedure: as §1

[6] = test system: Kasumi-1 AML cell line; assay: Single agent cell viability (CellTiterGlo); assay type: cell-based; settings: Homo sapiens, 72 h; Kasumi-1, single agent, 3 days incubation, CellTiterGlo; read-out: IC50
Procedure: as §1

[7] = test system: ML-2 AML cell line; assay: Single agent cell viability (CellTiterGlo); assay type: cell-based; settings: 72 h; ML-2, single agent, 3 days incubation, CellTiterGlo; read-out: IC50
Procedure: as §1

[8] = test system: MOLM-13 AML cell line; assay: Single agent cell viability (CellTiterGlo); assay type: cell-based; settings: Homo sapiens, 72 h; MOLM-13, single agent, 3 days incubation, CellTiterGlo; read-out: IC50
Procedure: as §1

[9] = test system: MV4; 11 AML cell line; assay: Single agent cell viability (CellTiterGlo); assay type: cell-based; settings: Homo sapiens, 72 h; MV4; 11, single agent, 3 days incubation, CellTiterGlo; read-out: IC50
Procedure: as §1

[10] = test system: Nomo-1 AML cell line; assay: Single agent cell viability (CellTiterGlo); assay type: cell-based; settings: Homo sapiens, 72 h; Nomo-1, single agent, 3 days incubation, CellTiterGlo; read-out: IC50
Procedure: as §1

[11] = test system: OCI-AML3 AML cell line; assay: Single agent cell viability (CellTiterGlo); assay type: cell-based; settings: Homo sapiens, OCI-AML-3, 72 h; OCI-AML3, single agent, 3 days incubation, CellTiterGlo; read-out: IC50
Procedure: as §1

[12] = test system: PL-21 AML cell line; assay: Single agent cell viability (CellTiterGlo); assay type: cell-based; settings: 72 h; PL-21, single agent, 3 days incubation, CellTiterGlo; read-out: IC50
Procedure: as §1

[13] = test system: THP-1 AML cell line; assay: Single agent cell viability (CellTiterGlo); assay type: cell-based; settings: Homo sapiens, 72 h; THP-1, single agent, 3 days incubation, CellTiterGlo; read-out: IC50
Procedure: as §1

[14] = test system: mononuclear cells from AML patient samples; assay: Cell viability assay (Sytox blue flow cytometry) in primary AML samples; assay type: cell-based, human; settings: Homo sapiens, 48 h, combination at 1:1 ratio, read-out: 50% lethal concentration (LC50)
Procedure: Bone marrow samples from patients with AML were collected after informed consent in accordance with guidelines approved by The Alfred Hospital Human research ethics committee.
Mononuclear cells were isolated by density-gradient centrifugation Ficoll-Hypaque (GE Healthcare, Australia) density-gradient centrifugation and red cell lysis was performed using 0.156 M NH4Cl, 0.017 M Tris-HCl pH 7.2 as previously described (Rijal et al., Blood 2015, 125, 2815-2824). Cells were then re-suspended in phosphate-buffered saline containing 2% Fetal Bovine serum (FBS; Sigma, Australia). Mononuclear cells were then suspended in RPMI-1640 (GIBCO, Australia) medium containing penicillin and streptomycin (GIBCO) and heat inactivated fetal bovine serum 15% (Sigma). Cells were washed in phosphate-buffered saline (PBS) containing 2% FBS prior to use.
Freshly purified mononuclear cells from AML patient samples were adjusted to a concentration of 2.5×10^5/mL and 100 μL of cells aliquoted per well into 96 well plates (Sigma). Cells were then treated with idarubicin and Compound 2 over a […] concentration range from 1 nM to 10 μM for 48 hours. For combinations assays, drugs were added at a 1:1 ratio from 1 nM to 10 μM and cells were incubated at 37° C. 5% CO2. Cells were then stained with Sytox blue nucleic acid stain (Invitrogen, Australia) and fluorescence measured by flow cytometric analysis using the LSR-II Fortessa (Becton Dickinson, Australia). FACSDiva software was used for data collection, and FlowJo software for analysis. Blast cells were gated using forward and side scatter properties. Viable cells excluding Sytox blue were determined at 6 concentrations for each drug and the 50% lethal concentration (LC50, in μM) determined.

Structure (SMILES): CC(=O)[C@]1(O)Cc2c(O)c3c(c(O)c2[C@@H](O[C@H]2C[C@H](N)[C@H](O)[C@H](C)O2)C1)C(=O)c1ccccc1C3=O [Idarubicin, idarubicin]
- IC50 [1]: 2 nM
- IC50 [2]: 8 nM
- IC50 [3]: 2 nM
- IC50 [4]: 6 nM
- IC50 [5]: 10 nM
- IC50 [6]: 3 nM
- IC50 [7]: 10 nM
- IC50 [8]: 3 nM
- IC50 [9]: 1 nM
- IC50 [10]: 28 nM
- IC50 [11]: 20 nM
- IC50 [12]: 23 nM
- IC50 [13]: 24 nM
- CC50 ([14]; Patient AML 6200840, 48 hours): 384 nM
- CC50 ([14]; Patient AML AH0131936, 48 hours): 886 nM
- CC50 ([14]; Patient AML AH0465385, 48 hours): 5130 nM
- CC50 ([14]; Patient AML AH0607688, 48 hours): 593 nM
- CC50 ([14]; Patient AML AH0979006, 48 hours): 1.07 nM
- CC50 ([14]; Patient AML AH1081582, 48 hours): 184 nM
- CC50 ([14]; Patient AML AH1228742, 48 hours): 404000 nM
- CC50 ([14]; Patient AML AH6120264, 48 hours): 328 nM
- CC50 ([14]; Patient AML AH6181414_2, 48 hours): 3470 nM
- CC50 ([14]; Patient AML AH6202849, 48 hours): 2870 nM
- CC50 ([14]; Patient AML AH6208160, 48 hours): 1750 nM
- CC50 ([14]; Patient AML AH6208654, 48 hours): 308 nM
- CC50 ([14]; Patient AML AH6210946, 48 hours): 105 nM
- CC50 ([14]; Patient AML AH6214498, 48 hours): 1.11 nM
- CC50 ([14]; Patient AML AH6217528, 48 hours): 33.5 nM
- CC50 ([14]; Patient AML AH6219953, 48 hours): 4370 nM
- CC50 ([14]; Patient AML AH6220847, 48 hours): 14.4 nM
- CC50 ([14]; Patient AML AH6223646, 48 hours): 315 nM
- CC50 ([14]; Patient AML AH6224104, 48 hours): 192000 nM
- CC50 ([14]; Patient AML AH6229985, 48 hours): 1.38 nM
- CC50 ([14]; Patient AML AH6607085, 48 hours): 563 nM
- CC50 ([14]; Patient AML AH6615742, 48 hours): 2930 nM
- CC50 ([14]; Patient AML AH6627892, 48 hours): 2200 nM
